Assay results reported in patent publication US11161846B2, “Substituted pyrazolo[4,3-b]pyridines and their use as GluN2B receptor modulators” (JANSSEN PHARMACEUTICA NV, priority 2019, dated 2021).

Molecular target: T1, human GluN1/GluN2B NMDA receptors (Homo sapiens, UniProt Q05586+Q13224)
T1 construct: expressed in transfected cells
Experiment: Calcium flux (FLIPR) assay on cloned human NR1/GluN2B ion channels expressed in mammalian cells, standard assay
Type: cell-based
Settings: glutamate ~EC40 and 10 μM glycine, stable cell line with Tet-On induced expression
Protocol: Effects of Test Articles on Cloned Human NR1/GluN2B Ion Channels Expressed in Mammalian Cells
NMDA receptors are ion channels that are highly permeable to Ca^2+ ions, rendering it possible to monitor NMDA receptor function using cell-based calcium flux assay. In this assay, co-agonists glutamate and glycine are added to cells heterologously expressing human GluN1/GluN2B NMDA receptors to initiate cellular Ca^2+ influx. The time course of the changes in intracellular calcium is measured using a fluorescent dye and a FLIPR (Fluorometric Imaging Plate Reader) device.
Twenty four hours before measurements, the expression of the NMDA receptors in the stable cell line is induced with Tet-On inducible system in the presence of a non-selective NMDA receptor blocker. On the day of the experiment, cell culture media is carefully washed and the cells are loaded with Calcium 5 Dye Kit (Molecular Devices) in dye loading buffer containing 137 mM NaCl, 4 mM KCl, 2 mM CaCl2, 0.5 mM MgCl2 (standard assay) or 1.5 mM MgCl2 (HTS assay), 10 mM HEPES and 5 mM D-glucose; pH 7.4. After 1 h incubation at the room temperature, the dye is washed away with the assay buffer (137 mM NaCl (standard assay) or 150 mM (HTS assay), 4 mM KCl (standard assay) or 3 mM (HTS assay), 2 mM CaC2, 0.01 mM EDTA, 10 mM HEPES and 5 mM D-glucose; pH 7.4) In the FLIPR TETRA reader, various concentrations of the test compounds are added to the cells for 5 min while fluorescence is monitored to detect potential agonist activity. Next, co-agonists, glutamate and glycine are added for another 5 minutes. The concentration of glutamate corresponding to ˜EC40 (standard assay) or EC40 (HTS assay) is used to maximize the assay's signal window and ability to detect NMDA receptor antagonists and negative allosteric modulators. A saturating concentration (10 μM) of glycine is also present in the assay. A non-selective NMDA receptor antagonist, (+)MK-801 is used as a positive control for antagonist activity. The fluorescent signal in the presence of test compounds is quantified and normalized to the signal defined by the appropriate control wells.

T1 sequence (Q13224 27-1484, other chains not shown): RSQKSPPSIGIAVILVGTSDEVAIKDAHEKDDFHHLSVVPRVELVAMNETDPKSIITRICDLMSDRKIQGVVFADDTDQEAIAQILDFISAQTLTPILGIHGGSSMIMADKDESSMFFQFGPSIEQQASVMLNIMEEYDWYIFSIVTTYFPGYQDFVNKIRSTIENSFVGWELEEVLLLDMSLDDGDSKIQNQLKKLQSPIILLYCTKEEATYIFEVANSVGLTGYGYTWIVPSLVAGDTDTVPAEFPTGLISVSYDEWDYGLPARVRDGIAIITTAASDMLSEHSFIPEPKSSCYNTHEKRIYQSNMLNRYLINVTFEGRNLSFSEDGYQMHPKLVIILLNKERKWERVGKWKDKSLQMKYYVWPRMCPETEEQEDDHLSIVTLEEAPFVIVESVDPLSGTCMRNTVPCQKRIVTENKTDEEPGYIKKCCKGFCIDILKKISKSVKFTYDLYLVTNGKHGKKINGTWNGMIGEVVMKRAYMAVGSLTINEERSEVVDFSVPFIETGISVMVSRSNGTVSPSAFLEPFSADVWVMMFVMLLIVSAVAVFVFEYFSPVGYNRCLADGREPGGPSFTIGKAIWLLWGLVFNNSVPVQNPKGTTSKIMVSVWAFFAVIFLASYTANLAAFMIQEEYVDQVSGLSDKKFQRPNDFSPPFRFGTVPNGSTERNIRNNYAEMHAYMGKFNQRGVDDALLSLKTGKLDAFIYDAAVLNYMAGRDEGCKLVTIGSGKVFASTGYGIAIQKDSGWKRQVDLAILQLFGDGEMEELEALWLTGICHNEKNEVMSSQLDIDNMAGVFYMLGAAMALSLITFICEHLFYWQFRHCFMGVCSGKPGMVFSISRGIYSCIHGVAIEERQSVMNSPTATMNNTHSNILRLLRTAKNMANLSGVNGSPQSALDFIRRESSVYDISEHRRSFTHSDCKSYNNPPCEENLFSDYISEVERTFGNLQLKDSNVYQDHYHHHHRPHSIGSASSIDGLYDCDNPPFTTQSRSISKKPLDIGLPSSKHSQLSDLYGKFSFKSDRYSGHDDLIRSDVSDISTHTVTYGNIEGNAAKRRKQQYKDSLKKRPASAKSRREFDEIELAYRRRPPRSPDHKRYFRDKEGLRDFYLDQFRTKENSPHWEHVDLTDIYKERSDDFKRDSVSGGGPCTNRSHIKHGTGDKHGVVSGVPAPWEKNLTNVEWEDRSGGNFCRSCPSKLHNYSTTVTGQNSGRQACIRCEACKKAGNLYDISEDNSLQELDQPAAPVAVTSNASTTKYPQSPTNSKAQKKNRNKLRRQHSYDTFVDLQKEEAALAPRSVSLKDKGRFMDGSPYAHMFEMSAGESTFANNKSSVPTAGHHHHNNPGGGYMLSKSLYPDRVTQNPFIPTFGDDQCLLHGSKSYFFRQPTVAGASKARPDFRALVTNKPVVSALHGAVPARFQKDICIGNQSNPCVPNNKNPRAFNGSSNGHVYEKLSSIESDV

IC50 [µM] | Structure (SMILES)
2.48 | CC(C)C(Cn1ncc2ncc(-c3cccc(C(F)(F)F)c3)cc21)=NO (mixture of isomers) [Example 6, (E/Z)-3-Methyl-1-[6-[3-(trifluoromethyl)phenyl]pyrazolo[4,3-b]pyridin-1-yl]butan-2-one oxime]
5.25 | CON=C(Cn1ncc2ncc(-c3cccc(C(F)(F)F)c3)cc21)C(C)C (mixture of isomers) [Example 105, (E/Z)-N-Methoxy-3-methyl-1-[6-[3-(trifluoromethyl)phenyl]pyrazolo[4,3-b]pyridin-1-yl]butan-2-imine]
1.49 | ON=C(Cn1ncc2ncc(-c3cccc(C(F)(F)F)c3)cc21)C1CC1 (mixture of isomers) [Example 106, (E/Z)-1-Cyclopropyl-2-[6-[3-(trifluoromethyl)phenyl]pyrazolo[4,3-b]pyridin-1-yl]ethanone oxime]
0.065 | ON=C(Cn1ncc2ncc(-c3ccc(F)c(C(F)F)c3)cc21)C1CC1 (mixture of isomers) [Example 107, (E/Z)-1-Cyclopropyl-2-[6-[3-(difluoromethyl)-4-fluoro-phenyl]pyrazolo[4,3-b]pyridin-1-yl]ethanone oxime]
0.567 | CC(C)C(O)Cn1ncc2ncc(-c3cccc(C(F)(F)F)c3)cc21 (racemic) [Example 3, (RS)-3-Methyl-1-[6-[3-(trifluoromethyl)phenyl]pyrazolo[4,3-b]pyridin-1-yl]butan-2-ol]
0.048 | CCC(O)Cn1ncc2ncc(-c3ccc(F)c(C(F)F)c3)cc21 (racemic) [Example 5, (RS)-1-[6-[3-(Difluoromethyl)-4-fluoro-phenyl]pyrazolo[4,3-b]pyridin-1-yl]butan-2-ol]
0.222 | Cc1cc(-c2cnc3cnn(CC(O)C(C)C)c3c2)ccc1F (racemic) [Example 8, (RS)-1-[6-(4-Fluoro-3-methyl-phenyl)pyrazolo[4,3-b]pyridin-1-yl]-3-methyl-butan-2-ol]
0.696 | OC(Cn1ncc2ncc(-c3cc(F)c(F)c(F)c3)cc21)C1CC1 (racemic) [Example 10, (R/S)-1-Cyclopropyl-2-[6-(3,4,5-trifluorophenyl)pyrazolo[4,3-b]pyridin-1-yl]ethanol]
1.78 | COC(Cn1ncc2ncc(-c3cc(F)c(F)c(F)c3)cc21)C1CC1 (racemic) [Example 11, (R/S)-1-(2-Cyclopropyl-2-methoxy-ethyl)-6-(3,4,5-trifluorophenyl)pyrazolo[4,3-b]pyridine]
0.146 | CC[S+]([O-])Cn1ncc2ncc(-c3ccc(F)c(OC(F)F)c3)cc21 (racemic) [Example 12, (RS)-6-[3-(Difluoromethoxy)-4-fluoro-phenyl]-1-(ethylsulfinylmethyl)pyrazolo[4,3-b]pyridine]
0.085 | FC(F)(F)c1cccc(-c2cnc3cnn(CC4CCO4)c3c2)c1 (racemic) [Example 17, (RS)-1-(Oxetan-2-ylmethyl)-6-[3-(trifluoromethyl)phenyl]pyrazolo[4,3-b]pyridine]
0.035 | Fc1ccc(-c2cnc3cnn(CC4CCCO4)c3c2)cc1C(F)F (racemic) [Example 18, (RS)-6-[3-(Difluoromethyl)-4-fluoro-phenyl]-1-(tetrahydrofuran-2-ylmethyl)pyrazolo[4,3-b]pyridine]
0.992 | CN1CC(Cn2ncc3ncc(-c4ccc(F)c(OC(F)F)c4)cc32)CC1=O (racemic) [Example 19, (RS)-4-[[6-[3-(Difluoromethoxy)-4-fluoro-phenyl]pyrazolo[4,3-b]pyridin-1-yl]methyl]-1-methyl-pyrrolidin-2-one]
0.197 | O=C1NCC(Cn2ncc3ncc(-c4ccc(F)c(C(F)F)c4)cc32)O1 (racemic) [Example 20, (RS)-5-[[6-[3-(Difluoromethyl)-4-fluoro-phenyl]pyrazolo[4,3-b]pyridin-1-yl]methyl]oxazolidin-2-one]
0.823 | CC[S+]([O-])Cn1ncc2ncc(-c3cccc(F)c3)cc21 (racemic) [Example 80, (RS)-1-(Ethylsulfinylmethyl)-6-(3-fluorophenyl)pyrazolo[4,3-b]pyridine]
0.128 | CC[S+]([O-])Cn1ncc2ncc(-c3cccc(C(F)(F)F)c3)cc21 (racemic) [Example 81, (RS)-1-(Ethylsulfinylmethyl)-6-[3-(trifluoromethyl)phenyl]pyrazolo[4,3-b]pyridine]
0.893 | CC[S+]([O-])Cn1ncc2ncc(-c3ccc(F)c(F)c3)cc21 (racemic) [Example 82, (RS) 6-(3,4-Difluorophenyl)-1-(ethylsulfinylmethyl)pyrazolo[4,3-b]pyridine]
0.034 | CC[S+]([O-])Cn1ncc2ncc(-c3ccc(F)c(C(F)F)c3)cc21 (racemic) [Example 83, (RS)-6-(3-(Difluoromethyl)-4-fluorophenyl)-1-((ethylsulfinyl)methyl)-1H-pyrazolo[4,3-b]pyridine]
0.109 | CC[S+]([O-])Cn1ncc2ncc(-c3ccc(Cl)c(OC(F)F)c3)cc21 (racemic) [Example 87, (RS)-6-[4-Chloro-3-(difluoromethoxy)phenyl]-1-(ethylsulfinylmethyl)pyrazolo[4,3-b]pyridine]
0.736 | CC[S+]([O-])Cn1ncc2ncc(-c3cc(F)c(F)c(F)c3)cc21 (racemic) [Example 88, (RS)-1-(Ethylsulfinylmethyl)-6-(3,4,5-trifluorophenyl)pyrazolo[4,3-b]pyridine]
1.42 | COCCC(O)Cn1ncc2ncc(-c3cccc(C(F)(F)F)c3)cc21 (racemic) [Example 90, (RS)-4-Methoxy-1-[6-[3-(trifluoromethyl)phenyl]pyrazolo[4,3-b]pyridin-1-yl]butan-2-ol]
0.526 | CCC(O)Cn1ncc2ncc(-c3ccc(F)c(F)c3)cc21 (racemic) [Example 91, (RS)-1-[6-(3,4-Difluorophenyl)pyrazolo[4,3-b]pyridin-1-yl]butan-2-ol]
0.282 | CCC(O)Cn1ncc2ncc(-c3ccc(F)c(OC(F)F)c3)cc21 (racemic) [Example 92, (RS)-1-[6-[3-(Difluoromethoxy)-4-fluoro-phenyl]pyrazolo[4,3-b]pyridin-1-yl]butan-2-ol]
0.415 | CCC(O)Cn1ncc2ncc(-c3ccc(Cl)c(OC(F)F)c3)cc21 (racemic) [Example 93, (RS)-1-[6-[4-Chloro-3-(difluoromethoxy)phenyl]pyrazolo[4,3-b]pyridin-1-yl]butan-2-ol]
0.965 | CCC(O)Cn1nc(F)c2ncc(-c3ccc(F)c(F)c3)cc21 (racemic) [Example 94, (RS)-1-[6-(3,4-Difluorophenyl)-3-fluoro-pyrazolo[4,3-b]pyridin-1-yl]butan-2-ol]
0.272 | CCC(O)Cn1ncc2ncc(-c3cccc(C(C)(F)F)c3)cc21 (racemic) [Example 95, (RS)-1-[6-[3-(1,1-Difluoroethyl)phenyl]pyrazolo[4,3-b]pyridin-1-yl]butan-2-ol]
1.53 | CC(C)C(O)Cn1ncc2ncc(-c3ccccc3)cc21 (racemic) [Example 96, (RS)-3-Methyl-1-(6-phenylpyrazolo[4,3-b]pyridin-1-yl)butan-2-ol]
0.591 | CC(C)C(O)Cn1ncc2ncc(-c3cc(F)c(F)c(F)c3)cc21 (racemic) [Example 97, (RS)-3-Methyl-1-[6-(3,4,5-trifluorophenyl)pyrazolo[4,3-b]pyridin-1-yl]butan-2-ol]
